Measurements reported in US8993752B2, “Neprilysin inhibitors” (Theravance Biopharma R&D IP, LLC, priority 2011, dated 2015).

Biological target: T1, human NEP (Homo sapiens, UniProt P08473)
T1 construct: purchased R&D Systems, Minneapolis, Minn; 1182-ZN
Assay: In vitro enzyme inhibition assay at human NEP (fluorogenic peptide substrate)
Format: biochemical
Conditions: recombinant human NEP; substrate Mca-D-Arg-Arg-Leu-Dap-(Dnp)-OH 10 μM; 37° C.; values given as ranges; read-out: pKi values at human NEP (converted)
Outline: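 Recombinant human NEP pre-incubated 30 min at 37 °C with compound (10 μM to 20 pM), then 10 μM Mca-D-Arg-Arg-Leu-Dap-(Dnp)-OH in 50 mM HEPES pH 7.5, 100 mM NaCl, 0.01% Tween-20, 10 μM ZnSO4. Stopped after 20 min with acetic acid, fluorescence read at 320/405 nm; Ki from nonlinear fit, reported as pKi.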

T1 sequence (P08473 whole entry): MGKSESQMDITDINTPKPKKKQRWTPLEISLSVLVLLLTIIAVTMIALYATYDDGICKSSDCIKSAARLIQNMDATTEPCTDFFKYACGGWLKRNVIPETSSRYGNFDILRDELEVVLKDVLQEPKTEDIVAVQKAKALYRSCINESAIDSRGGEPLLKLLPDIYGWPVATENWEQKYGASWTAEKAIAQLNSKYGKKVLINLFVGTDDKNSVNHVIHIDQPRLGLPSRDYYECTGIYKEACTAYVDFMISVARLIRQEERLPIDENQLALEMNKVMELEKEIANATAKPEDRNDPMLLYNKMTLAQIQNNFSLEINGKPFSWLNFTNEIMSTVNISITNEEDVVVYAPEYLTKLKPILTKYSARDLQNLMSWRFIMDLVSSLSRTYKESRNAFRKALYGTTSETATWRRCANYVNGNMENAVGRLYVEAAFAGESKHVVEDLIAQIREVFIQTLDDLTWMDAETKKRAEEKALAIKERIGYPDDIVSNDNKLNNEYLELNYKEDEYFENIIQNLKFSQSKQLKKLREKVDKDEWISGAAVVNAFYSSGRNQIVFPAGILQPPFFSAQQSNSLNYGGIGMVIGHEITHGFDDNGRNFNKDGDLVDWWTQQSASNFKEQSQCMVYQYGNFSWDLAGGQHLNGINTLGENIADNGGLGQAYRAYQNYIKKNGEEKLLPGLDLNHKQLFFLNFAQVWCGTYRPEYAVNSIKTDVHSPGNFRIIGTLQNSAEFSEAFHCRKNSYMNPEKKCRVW

Compound | Ki [µM]
O=C(N[C@H](Cc1ccccc1C(F)(F)F)[C@@H](O)C(=O)O)c1cc(C(=O)N2CC[C@H](C(=O)O)C2)[nH]n1 [Example 6-11, (S)-1-{5-[(1R,2R)-2-Carboxy-2-hydroxy-1-(2-trifluoromethyl-benzyl)-ethylcarbamoyl]-2H-pyrazole-3-carbonyl}-pyrrolidine-3-carboxylic acid] | 0.00126 to 0.01
O=C(N[C@H](Cc1ccccc1)[C@@H](O)C(=O)O)c1cc(C(=O)O)n(Cc2ccc(Cl)cc2F)n1 [Example 8-1, 5-((1R,2R)-1-Benzyl-2-carboxy-2-hydroxy-ethylcarbamoyl)-2-(4-chloro-2-fluoro-benzyl)-2H-pyrazole-3-carboxylic acid] | 0.00126 to 0.01
O=C(N[C@H](Cc1ccccc1)[C@@H](O)C(=O)O)c1cc(C(=O)O)n(Cc2c(F)cc(Cl)cc2F)n1 [Example 8-3, 5-((1R,2R)-1-Benzyl-2-carboxy-2-hydroxy-ethylcarbamoyl)-2-(4-chloro-2,6-difluoro-benzyl)-2H-pyrazole-3-carboxylic acid] | 0.00126 to 0.01
O=C(N[C@H](Cc1ccccc1)[C@@H](O)C(=O)O)c1cc(C(=O)O)n(Cc2cccc(F)c2)n1 [Example 8-4, 5-((1R,2R)-1-Benzyl-2-carboxy-2-hydroxy-ethylcarbamoyl)-2-(3-fluoro-benzyl)-2H-pyrazole-3-carboxylic acid] | 0.00126 to 0.01
COc1cccc(Cn2nc(C(=O)N[C@H](Cc3ccccc3)[C@@H](O)C(=O)O)cc2C(=O)O)c1 [Example 8-5, 5-((1R,2R)-1-Benzyl-2-carboxy-2-hydroxy-ethylcarbamoyl)-2-(3-methoxy-benzyl)-2H-pyrazole-3-carboxylic acid] | 0.00126 to 0.01
O=C(N[C@H](Cc1ccccc1)[C@@H](O)C(=O)O)c1cc(C(=O)O)n(Cc2ccc(Cl)cc2)n1 [Example 8-6, 5-((1R,2R)-1-Benzyl-2-carboxy-2-hydroxy-ethylcarbamoyl)-2-(4-chloro-benzyl)-2H-pyrazole-3-carboxylic acid] | 0.00126 to 0.01
O=C(N[C@H](Cc1ccccc1)[C@@H](O)C(=O)O)c1cc(C(=O)O)n(Cc2ccccc2)n1 [Example 8-8, 2-Benzyl-5-((1R,2R)-1-benzyl-2-carboxy-2-hydroxy-ethylcarbamoyl)-2H-pyrazole-3-carboxylic acid] | 0.00126 to 0.01
O=C(N[C@H](Cc1ccccc1)[C@@H](O)C(=O)O)c1cc(C(=O)O)n(Cc2ccc(F)cc2)n1 [Example 8-9, 5-((1R,2R)-1-Benzyl-2-carboxy-2-hydroxy-ethylcarbamoyl)-2-(4-fluoro-benzyl)-2H-pyrazole-3-carboxylic acid] | 0.00126 to 0.01
O=C(N[C@H](Cc1ccccc1)[C@@H](O)C(=O)O)c1cc(C(=O)O)[nH]n1 [Example 8-10, 5-((1R,2R)-1-Benzyl-2-carboxy-2-hydroxy-ethylcarbamoyl)-2H-pyrazole-3-carboxylic acid] | 0.0126 to 0.1
O=C(N[C@H](Cc1ccccc1)[C@@H](O)C(=O)O)c1cc([N+](=O)[O-])[nH]n1 [Example 8-11, (2R,3R)-2-Hydroxy-3-[(5-nitro-1H-pyrazole-3-carbonyl)-amino]-4-phenyl-butyric acid] | 0.0126 to 0.1
CCn1nc(C(=O)N[C@H](Cc2ccccc2)[C@@H](O)C(=O)O)cc1C(=O)O [Example 8-12, 5-((1R,2R)-1-Benzyl-2-carboxy-2-hydroxy-ethylcarbamoyl)-2-ethyl-2H-pyrazole-3-carboxylic acid] | 0.0126 to 0.1
COCCn1nc(C(=O)N[C@H](Cc2ccccc2)[C@@H](O)C(=O)O)cc1C(=O)O [Example 8-13, 5-((1R,2R)-1-Benzyl-2-carboxy-2-hydroxy-ethylcarbamoyl)-2-(2-methoxy-ethyl)-2H-pyrazole-3-carboxylic acid] | 0.0126 to 0.1
O=C(N[C@H](Cc1ccccc1)[C@@H](O)C(=O)O)c1cc(C(=O)O)n(CCO)n1 [Example 8-14, 5-((1R,2R)-1-Benzyl-2-carboxy-2-hydroxy-ethylcarbamoyl)-2-(2-hydroxy-ethyl)-2H-pyrazole-3-carboxylic acid] | 0.0126 to 0.1
O=C(N[C@H](Cc1ccccc1)[C@@H](O)C(=O)O)c1cc(C(=O)O)n(Cc2cccnc2)n1 [Example 8-15, 5-((1R,2R)-1-Benzyl-2-carboxy-2-hydroxy-ethylcarbamoyl)-2-pyridin-3-ylmethyl-2H-pyrazole-3-carboxylic acid] | 0.0126 to 0.1
O=C(N[C@H](Cc1ccccc1)[C@@H](O)C(=O)O)c1ccn(Cc2ccc(Cl)cc2)n1 [Example 8-16, (2R,3R)-3-{[1-(4-Chloro-benzyl)-1H-pyrazole-3-carbonyl]-amino}-2-hydroxy-4-phenyl-butyric acid] | 0.0126 to 0.1
CN(C)C(=O)c1cc(C(=O)N[C@H](Cc2ccccc2)[C@@H](O)C(=O)O)nn1Cc1ccc(Cl)cc1 [Example 8-17, (2R,3R)-3-{[1-(4-Chloro-benzyl)-5-dimethylcarbamoyl-1H-pyrazole-3-carbonyl]-amino}-2-hydroxy-4-phenyl-butyric acid] | 0.0126 to 0.1
O=C(N[C@H](Cc1ccccc1)[C@@H](O)C(=O)O)c1cc(C(=O)N2CCOCC2)n(Cc2ccc(Cl)cc2)n1 [Example 8-18, (2R,3R)-3-{[1-(4-Chloro-benzyl)-5-(morpholine-4-carbonyl)-1H-pyrazole-3-carbonyl]-amino}-2-hydroxy-4-phenyl-butyric acid] | 0.0126 to 0.1
CCCc1cc(C(=O)N[C@H](Cc2ccccc2)[C@@H](O)C(=O)O)nn1Cc1ccccc1 [Example 8-19, (2R,3R)-3-[(1-Benzyl-5-propyl-1H-pyrazole-3-carbonyl)-amino]-2-hydroxy-4-phenyl-butyric acid] | 0.0126 to 0.1
COc1ccc(Cn2nc(C(=O)N[C@H](Cc3ccccc3)[C@@H](O)C(=O)O)cc2C2CC2)cc1 [Example 8-20, (2R,3R)-3-{[5-Cyclopropyl-1-(4-methoxy-benzyl)-1H-pyrazole-3-carbonyl]-amino}-2-hydroxy-4-phenyl-butyric acid] | 0.00126 to 0.01
COc1ccc(Cn2nc(C(=O)N[C@H](Cc3ccccc3)[C@@H](O)C(=O)O)cc2C2CC2)c(F)c1F [Example 8-21, (2R,3R)-3-{[5-Cyclopropyl-1-(2,3-difluoro-4-methoxy-benzyl)-1H-pyrazole-3-carbonyl]-amino}-2-hydroxy-4-phenyl-butyric acid] | 0.00126 to 0.01
COc1c(F)c(F)c(Cn2nc(C(=O)N[C@H](Cc3ccccc3)[C@@H](O)C(=O)O)cc2C2CC2)c(F)c1F [Example 8-22, (2R,3R)-3-{[5-Cyclopropyl-1-(2,3,5,6-tetrafluoro-4-methoxy-benzyl)-1H-pyrazole-3-carbonyl]-amino}-2-hydroxy-4-phenyl-butyric acid] | ≤ 0.001
CSc1ccc(Cn2nc(C(=O)N[C@H](Cc3ccccc3)[C@@H](O)C(=O)O)cc2C2CC2)cc1 [Example 8-23, (2R,3R)-3-{[5-Cyclopropyl-1-(4-methylsulfanyl-benzyl)-1H-pyrazole-3-carbonyl]-amino}-2-hydroxy-4-phenyl-butyric acid] | 0.0126 to 0.1
CCOc1ncc(Cn2nc(C(=O)N[C@H](Cc3ccccc3)[C@@H](O)C(=O)O)cc2C2CC2)cn1 [Example 8-24, (2R,3R)-3-{[5-Cyclopropyl-1-(2-ethoxy-pyrimidin-5-ylmethyl)-1H-pyrazole-3-carbonyl]-amino}-2-hydroxy-4-phenyl-butyric acid] | 0.0126 to 0.1
O=C(O)C[C@@H](Cc1ccccc1Cl)NC(=O)c1cc(C(=O)O)n(Cc2cccc(Cl)c2)n1 [Example 10, 5-[(R)-2-Carboxy-1-(2-chlorobenzyl)-ethylcarbamoyl]-2-(3-chlorobenzyl)-2H-pyrazole-3-carboxylic Acid] | 0.00126 to 0.01

Results, then the molecule that gave them:

Ki [µM] | Compound
0.0126 to 0.1 | O=C(N[C@H](Cc1ccccc1)[C@@H](O)C(=O)O)c1cnn(-c2ccccn2)c1 [Example 9-1, (2R,3R)-2-Hydroxy-4-phenyl-3-[(1-pyridin-2-yl-1H-pyrazole-4-carbonyl)-amino]-butyric acid]
0.0126 to 0.1 | COc1cccc(Cn2nc(C(=O)N[C@@H](CC(=O)O)Cc3ccccc3Cl)cc2C(=O)O)c1 [Example 11-1, 5-[(R)-2-Carboxy-1-(2-chloro-benzyl)-ethylcarbamoyl]-2-(3-methoxy-benzyl)-2H-pyrazole-3-carboxylic acid]
0.0126 to 0.1 | COc1ccc(Cn2nc(C(=O)N[C@@H](CC(=O)O)Cc3ccccc3Cl)cc2C(=O)O)cc1 [Example 11-2, 5-[(R)-2-Carboxy-1-(2-chloro-benzyl)-ethylcarbamoyl]-2-(4-methoxy-benzyl)-2H-pyrazole-3-carboxylic acid]
0.0126 to 0.1 | O=C(O)C[C@@H](Cc1ccccc1Cl)NC(=O)c1cc(C(=O)O)n(Cc2ccc(Cl)cc2)n1 [Example 11-3, 5-[(R)-2-Carboxy-1-(2-chloro-benzyl)-ethylcarbamoyl]-2-(4-chloro-benzyl)-2H-pyrazole-3-carboxylic acid]
0.0126 to 0.1 | O=C(O)C[C@@H](Cc1ccccc1Cl)NC(=O)c1cc(C(=O)O)n(Cc2ccccc2)n1 [Example 11-4, 2-Benzyl-5-[(R)-2-carboxy-1-(2-chloro-benzyl)-ethylcarbamoyl]-2H-pyrazole-3-carboxylic acid]
0.0126 to 0.1 | Cc1ccc(Cn2nc(C(=O)N[C@@H](CC(=O)O)Cc3ccccc3Cl)cc2C(=O)O)cc1 [Example 11-5, 5-[(R)-2-Carboxy-1-(2-chloro-benzyl)-ethylcarbamoyl]-2-(4-methyl-benzyl)-2H-pyrazole-3-carboxylic acid]
0.0126 to 0.1 | O=C(O)C[C@@H](Cc1ccccc1Cl)NC(=O)c1cc(C(=O)O)n(Cc2cccc(F)c2)n1 [Example 11-6, 5-[(R)-2-Carboxy-1-(2-chloro-benzyl)-ethylcarbamoyl]-2-(3-fluoro-benzyl)-2H-pyrazole-3-carboxylic acid]
0.0126 to 0.1 | O=C(O)C[C@@H](Cc1ccccc1Cl)NC(=O)c1cc(C(=O)O)[nH]n1 [Example 11-7, 5-[(R)-1-Carboxymethyl-2-(2-chloro-phenyl)-ethylcarbamoyl]-2H-pyrazole-3-carboxylic acid]
